Measured values reported in US20060111346A1, “Methods of modulating high-density lipoprotein cholesterol levels and pharmaceutical formulations for the same” (Fazix Corporation., priority 2004, published 2006).
Like-named read-outs stand apart in the source and are kept apart here.

Key:
CETP = biological target: T1, CETP (Oryctolagus cuniculus, UniProt P22687); test: CETP Inhibitor Drug Screening Kit (Biovision K602-100), cholesterol transfer activity; format: biochemical; conditions: 100 μM
T1 construct: purchased Biovision Research Products K602-100
T1 sequence (P22687 2-497): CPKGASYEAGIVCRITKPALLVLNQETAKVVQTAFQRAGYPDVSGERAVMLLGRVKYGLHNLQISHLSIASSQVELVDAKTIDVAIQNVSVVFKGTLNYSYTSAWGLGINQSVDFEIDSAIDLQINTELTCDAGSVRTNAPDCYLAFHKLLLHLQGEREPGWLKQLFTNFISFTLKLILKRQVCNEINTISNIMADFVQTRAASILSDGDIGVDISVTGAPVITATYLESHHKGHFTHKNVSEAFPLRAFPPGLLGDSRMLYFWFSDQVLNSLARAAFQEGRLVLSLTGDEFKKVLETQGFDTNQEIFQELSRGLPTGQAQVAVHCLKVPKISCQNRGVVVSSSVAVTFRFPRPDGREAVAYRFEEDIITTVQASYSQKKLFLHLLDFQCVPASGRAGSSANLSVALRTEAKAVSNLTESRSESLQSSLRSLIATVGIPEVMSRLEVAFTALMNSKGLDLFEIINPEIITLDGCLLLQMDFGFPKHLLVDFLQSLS
Method: The inhibitory activity of FZX-CETP-001 was determined in vitro using a commercially available CETP Inhibitor Drug Screening Kit (catalog # K602-100). The kit is available from Biovision Research Products, located in Mountain View, Calif. USA. Information regarding the kit is available at the following url addresses: http://www.biovisionlabs.com/cetp-pltp.html; and http://www.biovision.com/pdf/K602-100.pdf
Following the directions provided with the kit, FZX-CETP-001 was assayed for inhibitory activity.

Apo*E3Leiden.hCETP mice = conditions: for HDL cholesterol relative to control group / HDL phospholipids relative to control group / LDL cholesterol relative to control group / LDL phospholipids relative to control group: pooled blood
Method: A test group of 36 female transgenic Apo*E3Leiden/hCETP mice were fed a high fat western-type diet (containing by weight 15% coconut oil and 0.1% cholesterol) to increase plasma cholesterol levels to around 10 mM. After three weeks the mice were subdivided into 6 groups of 6 mice each, matched for plasma cholesterol, triglycerides and age.
Oral gavage at each separate concentration was administered with an aqueous solution containing by volume 5% ethanol, 4% PEG-400, 1% cremaphor over a period of 1 week per concentration. At the end of each 1 week treatment period, blood samples were collected after a 4 hours fasting period. Mice treated by oral gavage were left alone for 1 week after each collection of blood samples.
For each subcutaneous depot injection experiment, the appropriate dose in sesame oil solution was injected once and blood samples were collected 24 hours after injection (at the end of a 4 hour fasting period). Mice treated by subcutaneous injection were left alone for 13 days after each collection of blood samples.
Blood samples from untreated test animals and from animals treated by gavage or subcutaneous depot injection were pooled separately and a lipoprotein profile was measured by AKTA fast protein liquid chromatography (FPLC)(http://www.gmi-inc.com/BioTechLab/Pharmacia%20AKTA.htm) to determine the level of cholesterol and phospholipid associated with HDL and LDL. […] Additionally, food intake levels (per group), body weights, cholesterol levels, and triglyceride levels, were monitored.

[1] = oral gavage 0.1 mg/kg/day, 1 week
[2] = oral gavage 0.3 mg/kg/day, 1 week
[3] = oral gavage 1.0 mg/kg/day, 1 week
[4] = serum cholesterol profiles, FIGS. 2A-2D, increasing dose
[5] = serum phospholipid profiles, increasing dose
[6] = subcutaneous depot injection 0.3 mg/kg, 24 hours after injection
[7] = subcutaneous depot injection 1.0 mg/kg, 24 hours after injection
[8] = subcutaneous depot injection 3.0 mg/kg, 24 hours after injection

## CC(C)(Oc1ccc(Cl)cc1)C(=O)OCCN1CCN(CCCN2c3ccccc3Sc3ccc(C(F)(F)F)cc32)CC1 [FZX-CETP-0001, Fluphenazine 4-chlorophenoxyisobutyric acid ester]
CETP
  inhibition of CETP: 100%
CETP; Average, N = 2
  Cholesterol Transfer Activity, Fluorescence Units: 8312 Fluorescence Units
Apo*E3Leiden.hCETP mice; lowest tested dosage of 0.1 mg/kg/day by gavage, treated vs untreated control
  HDL-C to LDL-C ratio: marked increase
Apo*E3Leiden.hCETP mice; mouse, in vivo
  control parameters (food intake levels, body weights, cholesterol levels, triglyceride levels): no statistically significant difference
Apo*E3Leiden.hCETP mice; [1]
  HDL cholesterol relative to control group: 204%
  HDL phospholipids relative to control group: 128%
  LDL cholesterol relative to control group: 81%
  LDL phospholipids relative to control group: 81%
Apo*E3Leiden.hCETP mice; [2]
  HDL cholesterol relative to control group: 121%
  HDL phospholipids relative to control group: 136%
  LDL cholesterol relative to control group: 94%
  LDL phospholipids relative to control group: 92%
Apo*E3Leiden.hCETP mice; [3]
  HDL cholesterol relative to control group: 269%
  HDL phospholipids relative to control group: 129%
  LDL cholesterol relative to control group: 80%
  LDL phospholipids relative to control group: 96%
Apo*E3Leiden.hCETP mice; [4]
  ratio of HDL-C level in the treated to untreated mice: increases
  ratio of LDL-C level (total area under the curve) in treated to untreated mice: decreases with increasing dose
Apo*E3Leiden.hCETP mice; [5]
  ratio of HDL-C level in the treated to untreated mice: increases
  ratio of LDL-C phospholipid level (total area under the curve) in treated to untreated mice: decreases with increasing dose
Apo*E3Leiden.hCETP mice; [6]
  HDL cholesterol relative to control group: 286%
  HDL phospholipids relative to control group: 141%
  LDL cholesterol relative to control group: 100%
  LDL phospholipids relative to control group: 71%
Apo*E3Leiden.hCETP mice; [7]
  HDL cholesterol relative to control group: 277%
  HDL phospholipids relative to control group: 173%
  LDL cholesterol relative to control group: 78%
  LDL phospholipids relative to control group: 56%
Apo*E3Leiden.hCETP mice; [8]
  HDL cholesterol relative to control group: 1119%
  HDL phospholipids relative to control group: 169%
  LDL cholesterol relative to control group: 55%
  LDL phospholipids relative to control group: 70%
Apo*E3Leiden.hCETP mice; subcutaneous injections at doses at or above 1 mg/kg
  triglyceride level: slightly reduced
